Assay [1] concerns the target T1, human tear lipocalin (TL) (Homo sapiens, UniProt P31025, C119L). Kind of assay: time-dependent fluorescence binding kinetics.
Assay [2] addresses human tear lipocalin (TL) mutant S61/S153 (Homo sapiens, UniProt P31025, C79S/C119L/C171S). Kind of assay: time-dependent fluorescence binding kinetics.
Assay [3] addresses human tear lipocalin (TL) mutant S61/S153 (Homo sapiens, UniProt P31025, C119L/C171S/C79S). In words: fluorescence titration, steady-state deconvoluted with time-resolved lifetimes. It counts as binding.
The target in assay [4] is T1, human tear lipocalin (TL). The assay is described as above. In kind it is binding.

T1 sequence (P31025 19-176 C119L): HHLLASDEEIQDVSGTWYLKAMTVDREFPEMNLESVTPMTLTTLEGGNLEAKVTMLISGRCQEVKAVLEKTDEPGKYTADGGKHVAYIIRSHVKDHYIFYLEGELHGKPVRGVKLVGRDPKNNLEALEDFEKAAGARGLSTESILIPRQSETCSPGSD
Chain of human tear lipocalin (TL) mutant S61/S153 (Homo sapiens, UniProt P31025, C79S/C119L/C171S) (P31025 19-176 C79S/C119L/C171S): as the sequence (P31025 19-176 C119L) above, with C61S, C153S counted along it
Chain of human tear lipocalin (TL) mutant S61/S153 (Homo sapiens, UniProt P31025, C119L/C171S/C79S) (P31025 19-176 C79S/C119L/C171S): as the sequence (P31025 19-176 C119L) above, with C61S, C153S counted along it

For `C[C@H](CNc1ccc([N+](=O)[O-])c2nonc12)[C@H]1CC[C@H]2[C@@H]3CC=C4C[C@@H](O)CC[C@]4(C)[C@H]3CC[C@]12C` [NBD cholesterol, 22-(N-(7-nitrobenz-2-oxa-1,3-diazol-4-yl)amino)-23,24-bisnor-5-cholen-3\u03B2-ol], the entries for the “time-dependent fluorescence binding kinetics (time constant)” value in assay [1] and in assay [2] were 11.8 ± 0.2 s and 3.3 ± 0.1 s, respectively.
Take `CCCCCCCCCCCCCCCC(=O)OC[C@H](COP(=O)([O-])OCC[N+](C)(C)C)OC(=O)CCCCCCCCCCCNc1ccc([N+](=O)[O-])c2nonc12` [NBD C12-HPC, 2-(12-(7-nitrobenz-2-oxa-1,3-diazol-4-yl)amino)dodecanoyl-1-hexadecanoyl-sn-glycero-3-phosphocholine]: the “time-dependent fluorescence binding kinetics (time constant)” value stood at 32.2 ± 0.2 s in assay [1] and 22.2 ± 0.4 s in assay [2].
Consider `CN(C)c1cccc2c(S(=O)(=O)NCCCCCCCCCCC(=O)O)cccc12` [DAUDA, 11-((5-dimethylaminonaphthalene-1-sulfonyl)amino)undecanoic acid], for which the equilibrium dissociation constant (Kd) – broadly, a measure of binding affinity in units of concentration – in assay [3] stood at 2600 ± 300 nM; in assay [4], 2400 ± 300 nM.

The values above are taken from publication PMC3103136 (2011).
